Measured values taken from patent publication US7863416B2, “Nociceptin-based analgesics” (Synvax, Inc., priority 2001, dated 2011).
Numbered stars: 1 amine (or outer) side, 2 acyl side, 3 side chain; on linkers, the order of the positions; unused ones are H or OH. Square brackets hold non-standard residues; d marks the D form. Peptide text beside a SMILES is read from it. * marks the point of attachment. ξ: configuration not given here. Phe(4-NO2) = N[C@@H](Cc1ccc([N+](=O)[O-])cc1)C(=O)O; Trp(5-CN) = N#Cc1ccc2[nH]cc(C[C@H](N)C(=O)O)c2c1; Phe(4-COOH) = N[C@@H](Cc1ccc(C(=O)O)cc1)C(=O)O; Phe(4-CN) = N#Cc1ccc(C[C@H](N)C(=O)O)cc1; Phe(4-F) = N[C@@H](Cc1ccc(F)cc1)C(=O)O; Phe(4-Me) = Cc1ccc(C[C@H](N)C(=O)O)cc1; hPhe = N[C@@H](CCc1ccccc1)C(=O)O; ξNip = O=C(C1CCCN([*:1])C1)[*:2]; ξβ2hAla = CC(CN[*:1])C(=O)[*:2]; Phg = N[C@H](C(=O)O)c1ccccc1; Ac6c = NC1(C(=O)O)CCCCC1; Heptanoyl = CCCCCCC(=O)*; Propionyl = CCC(=O)*; Butyryl = CCCC(=O)*; Ahx = NCCCCCC(=O)O

Columns and labels:
[1] = molecular target: T1, human ORL1 (Homo sapiens, UniProt P41146); assay: Stimulation of [35S]GTPγS binding in membranes of CHO cells transfected with human ORL-1; assay type: biochemical; settings: for [35S]GTPγS Binding Percent Stimulation: Table 1, relative to nociceptin; for agonist/antagonist character at ORL1: in words; for EC50 ± SEM, stimulation of [35S]GTPγS binding: Table 6; for Emax: read-out: % Stimulation ± SEM of [35S]GTPγS binding
T1 construct: expressed in transfected cells; host or cells: CHO cells (G418-selected)
Experimental: First, CHO cells transfected with human ORL-1 are scraped from tissue culture dishes into 20 mM HEPES, 1 mM EDTA, and then centrifuged at 500×g for 10 minutes. The cells are then re-suspended in this buffer and homogenized using a Polytron Homogenizer.
The cellular homogenate is next centrifuged at 20,000×g for 20 minutes. Following this, the resulting pellet is re-suspended in a buffer containing 20 mM HEPES, 10 mM MgCl2, and 100 mM NaCl, having a resulting pH of 7.4. The suspension is then re-centrifuged at 20,000×g and suspended once more in the above-listed buffer. The pellet may be frozen at −70° C. prior to the final centrifugation. For the binding assay, membranes (10-20 μg protein) are incubated with [^35S]GTPγγS (50 pM), GDP (usually 10 μM), and the desired compound. The total volume of the mixture is 1 ml, which is incubated for 60 min at 25° C.
Following incubation, samples are filtered over glass fiber filters and counted. […]
In these [^35S]GTPγS assays, binding was conducted as described above. EC50 values and percent stimulation were determined using the program Prism.

[2] = molecular target: T1, human ORL1; assay: [3H]nociceptin binding to membranes of CHO cells transfected with human ORL1; settings: for Hill Coefficient: Table 5

T1 sequence (P41146 whole entry): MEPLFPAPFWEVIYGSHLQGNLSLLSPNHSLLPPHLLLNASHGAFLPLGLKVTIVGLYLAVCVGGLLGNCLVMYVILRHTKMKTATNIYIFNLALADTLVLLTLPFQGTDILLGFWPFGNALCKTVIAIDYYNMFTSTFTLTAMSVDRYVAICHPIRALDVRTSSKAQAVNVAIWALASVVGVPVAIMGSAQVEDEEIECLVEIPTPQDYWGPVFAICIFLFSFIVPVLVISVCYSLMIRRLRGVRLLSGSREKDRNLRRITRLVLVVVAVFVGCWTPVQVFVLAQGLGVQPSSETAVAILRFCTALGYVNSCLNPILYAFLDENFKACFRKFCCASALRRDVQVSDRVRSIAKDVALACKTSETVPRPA

Compound	Hill Coefficient [2]	Emax [1] [%]	further results
CCCC(=O)N[C@@H](CCCNC(=N)N)C(=O)N[C@@H](Cc1ccc(O)cc1)C(=O)N[C@@H](Cc1ccc(O)cc1)C(=O)N[C@@H](CCCNC(=N)N)C(=O)N[C@@H](Cc1c[nH]c2ccccc12)C(=O)N[C@@H](CCCNC(=N)N)C(N)=O [IV-15-A, Butryl-RYYRWR-NH2] (Butyryl-RYYRWR-NH2)			[35S]GTPγS Binding Percent Stimulation [1]: 63%
CCC(=O)N[C@@H](CCCNC(=N)N)C(=O)N[C@@H](Cc1ccc(O)cc1)C(=O)N[C@@H](Cc1ccc(O)cc1)C(=O)N[C@@H](CCCNC(=N)N)C(=O)N[C@@H](Cc1c[nH]c2ccccc12)C(=O)N[C@@H](CCCNC(=N)N)C(N)=O [IV-16-C, Propionyl-RYYRWR-NH2] (Propionyl-RYYRWR-NH2)			IC50 [2]: 1.2 nM; [35S]GTPγS Binding Percent Stimulation [1]: 82%; agonist/antagonist character at ORL1 [1]: nearly full agonist
CCCCCCC(=O)N[C@@H](CCCNC(=N)N)C(=O)N[C@@H](Cc1ccc(O)cc1)C(=O)N[C@@H](Cc1ccc(O)cc1)C(=O)N[C@@H](CCCNC(=N)N)C(=O)N[C@@H](Cc1c[nH]c2ccccc12)C(=O)N[C@@H](CCCNC(=N)N)C(N)=O [IV-18-C, Heptanoyl-RYYRWR-NH2] (Heptanoyl-RYYRWR-NH2)			IC50 [2]: 2.6 nM; [35S]GTPγS Binding Percent Stimulation [1]: 54%
N=C(N)NCCC[C@H](NC(=O)[C@H](Cc1c[nH]c2ccccc12)NC(=O)[C@H](CCCNC(=N)N)NC(=O)[C@H](Cc1ccc(O)cc1)NC(=O)[C@H](Cc1ccc(O)cc1)NC(=O)[C@H](CCCNC(=N)N)NC(=O)C1CCCNC1)C(N)=O (stereo partly drawn) [VII-1-A, Nipacotyl-Arg-Tyr-Tyr-Arg-Trp-Arg-NH2] (ξNip-RYYRWR-NH2)	0.97	< 20	EC50 ± SEM, stimulation of [35S]GTPγS binding [1]: FLAT
CC(CN)C(=O)N[C@@H](CCCNC(=N)N)C(=O)N[C@@H](Cc1ccc(O)cc1)C(=O)N[C@@H](Cc1ccc(O)cc1)C(=O)N[C@@H](CCCNC(=N)N)C(=O)N[C@@H](Cc1c[nH]c2ccccc12)C(=O)N[C@@H](CCCNC(=N)N)C(N)=O (stereo partly drawn) [VII-3-A, β-aminoisobutryl-Arg-Tyr-Tyr-Arg-Trp-Arg-NH2] (ξβ2hAla-RYYRWR-NH2)	0.72	29.1 ± 1.9	
N=C(N)NCCC[C@H](NC(=O)[C@H](Cc1c[nH]c2ccccc12)NC(=O)[C@H](CCCNC(=N)N)NC(=O)[C@H](Cc1ccc(O)cc1)NC(=O)[C@H](Cc1ccc(O)cc1)NC(=O)[C@H](CCCNC(=N)N)NC(=O)C1(N)CCCCC1)C(N)=O [VII-4-B, 1-aminocyclohexanoyl-Arg-Tyr-Tyr-Arg-Trp-Arg-NH2] (H-[Ac6c]RYYRWR-NH2)	1.0	< 20	EC50 ± SEM, stimulation of [35S]GTPγS binding [1]: FLAT
CC(=O)N[C@@H](CCCNC(=N)N)C(=O)N[C@H](C(=O)N[C@H](C(=O)N[C@@H](CCCNC(=N)N)C(=O)N[C@@H](Cc1c[nH]c2ccccc12)C(=O)N[C@@H](CCCNC(=N)N)C(N)=O)c1ccccc1)c1ccccc1 [VII-11-B, Ac-Arg-Phg-Phg-Arg-Trp-Arg-NH2] (Ac-R[Phg][Phg]RWR-NH2)	0.93		
CC(=O)N[C@@H](CCCNC(=N)N)C(=O)N[C@@H](Cc1ccc(O)cc1)C(=O)N[C@H](C(=O)N[C@@H](CCCNC(=N)N)C(=O)N[C@@H](Cc1c[nH]c2ccccc12)C(=O)N[C@@H](CCCNC(=N)N)C(N)=O)c1ccccc1 [VII-13-B, Ac-Arg-Tyr-Phg-Arg-Trp-Arg-NH2] (Ac-RY[Phg]RWR-NH2)	0.73		
CC(=O)N[C@@H](CCCNC(=N)N)C(=O)N[C@@H](Cc1ccc(C)cc1)C(=O)N[C@@H](Cc1ccc(O)cc1)C(=O)N[C@@H](CCCNC(=N)N)C(=O)N[C@@H](Cc1c[nH]c2ccccc12)C(=O)N[C@@H](CCCNC(=N)N)C(N)=O [VII-15-B, Ac-Arg-Phe(4-Me)-Tyr-Arg-Trp-Arg-NH2] (Ac-R[Phe(4-Me)]YRWR-NH2)	0.79	59.8 ± 16.2	
CC(=O)N[C@@H](CCCNC(=N)N)C(=O)N[C@@H](Cc1ccc(C)cc1)C(=O)N[C@@H](Cc1ccc(C)cc1)C(=O)N[C@@H](CCCNC(=N)N)C(=O)N[C@@H](Cc1c[nH]c2ccccc12)C(=O)N[C@@H](CCCNC(=N)N)C(N)=O [VII-17-B, Ac-Arg-Phe(4-Me)-Phe(4-Me)-Arg-Trp-Arg-NH2] (Ac-R[Phe(4-Me)][Phe(4-Me)]RWR-NH2)	1.06	< 20	EC50 ± SEM, stimulation of [35S]GTPγS binding [1]: FLAT
CC(=O)N[C@@H](CCCNC(=N)N)C(=O)N[C@@H](Cc1ccc(C(=O)O)cc1)C(=O)N[C@@H](Cc1ccc(O)cc1)C(=O)N[C@@H](CCCNC(=N)N)C(=O)N[C@@H](Cc1c[nH]c2ccccc12)C(=O)N[C@@H](CCCNC(=N)N)C(N)=O [VII-19-B, Ac-Arg-Phe(4-COOH)-Tyr-Arg-Trp-Arg-NH2] (Ac-R[Phe(4-COOH)]YRWR-NH2)	1.0	45.5 ± 8	
CC(=O)N[C@@H](CCCNC(=N)N)C(=O)N[C@@H](Cc1ccc([N+](=O)[O-])cc1)C(=O)N[C@@H](Cc1ccc(O)cc1)C(=O)N[C@@H](CCCNC(=N)N)C(=O)N[C@@H](Cc1c[nH]c2ccccc12)C(=O)N[C@@H](CCCNC(=N)N)C(N)=O [VII-23-B, Ac-Arg-Phe(NO2)-Tyr-Arg-Trp-Arg-NH2] (Ac-R[Phe(4-NO2)]YRWR-NH2)	0.74	56.6 ± 20.4	
CC(=O)N[C@@H](CCCNC(=N)N)C(=O)N[C@@H](Cc1ccc(F)cc1)C(=O)N[C@@H](Cc1ccc(O)cc1)C(=O)N[C@@H](CCCNC(=N)N)C(=O)N[C@@H](Cc1c[nH]c2ccccc12)C(=O)N[C@@H](CCCNC(=N)N)C(N)=O [VII-31-B, Ac-Arg-Phe(4-F)-Tyr-Arg-Trp-Arg-NH2] (Ac-R[Phe(4-F)]YRWR-NH2)	0.81	54.4 ± 1.2	
CC(=O)N[C@@H](CCCNC(=N)N)C(=O)N[C@@H](Cc1ccc(F)cc1)C(=O)N[C@@H](Cc1ccc(F)cc1)C(=O)N[C@@H](CCCNC(=N)N)C(=O)N[C@@H](Cc1c[nH]c2ccccc12)C(=O)N[C@@H](CCCNC(=N)N)C(N)=O [VII-33-B, Ac-Arg-Phe(4-F)-Phe(4-F)-Arg-Trp-Arg-NH2] (Ac-R[Phe(4-F)][Phe(4-F)]RWR-NH2)	0.89	< 20	EC50 ± SEM, stimulation of [35S]GTPγS binding [1]: FLAT
COc1ccc(C[C@H](NC(=O)[C@H](CCCNC(=N)N)NC(C)=O)C(=O)N[C@@H](Cc2ccc(O)cc2)C(=O)N[C@@H](CCCNC(=N)N)C(=O)N[C@@H](Cc2c[nH]c3ccccc23)C(=O)N[C@@H](CCCNC(=N)N)C(N)=O)cc1 [VII-35-C, Ac-Arg-Tyr(4-Me)-Tyr-Arg-Trp-Arg-NH2] (Ac-RY(Me)YRWR-NH2)	0.75	52.1 ± 0.6	
COc1ccc(C[C@H](NC(=O)[C@H](CCCNC(=N)N)NC(C)=O)C(=O)N[C@@H](Cc2ccc(OC)cc2)C(=O)N[C@@H](CCCNC(=N)N)C(=O)N[C@@H](Cc2c[nH]c3ccccc23)C(=O)N[C@@H](CCCNC(=N)N)C(N)=O)cc1 [VII-37-B, Ac-Arg-Tyr(4-Me)-Tyr(4-Me)-Arg-Trp-Arg-NH2] (Ac-RY(Me)Y(Me)RWR-NH2)	0.82	< 20	EC50 ± SEM, stimulation of [35S]GTPγS binding [1]: FLAT
CC(=O)N[C@@H](CCCNC(=N)N)C(=O)N[C@@H](Cc1ccc(C#N)cc1)C(=O)N[C@@H](Cc1ccc(O)cc1)C(=O)N[C@@H](CCCNC(=N)N)C(=O)N[C@@H](Cc1c[nH]c2ccccc12)C(=O)N[C@@H](CCCNC(=N)N)C(N)=O [VII-43-C, Ac-Arg-Phe(4-CN)-Tyr-Arg-Trp-Arg-NH2] (Ac-R[Phe(4-CN)]YRWR-NH2)	0.73	49.7 ± 6.6	agonist/antagonist character at ORL1 [1]: partial agonist
CC(=O)N[C@@H](CCCNC(=N)N)C(=O)N[C@@H](CCc1ccccc1)C(=O)N[C@@H](CCc1ccccc1)C(=O)N[C@@H](CCCNC(=N)N)C(=O)N[C@@H](Cc1c[nH]c2ccccc12)C(=O)N[C@@H](CCCNC(=N)N)C(N)=O [VII-49-B, Ac-Arg-hPhe-hPhe-Arg-Trp-Arg-NH2] (Ac-R[hPhe][hPhe]RWR-NH2)	0.94	< 20	EC50 ± SEM, stimulation of [35S]GTPγS binding [1]: FLAT
CC(=O)N[C@@H](CCCNC(=N)N)C(=O)N[C@@H](Cc1ccc(O)cc1)C(=O)N[C@@H](Cc1ccc(O)cc1)C(=O)N[C@@H](CCCNC(=N)N)C(=O)N[C@@H](Cc1c[nH]c2ccc(C#N)cc12)C(=O)N[C@@H](CCCNC(=N)N)C(N)=O [VII-51-A, Ac-Arg-Tyr-Tyr-Arg-Trp(5-CN)-Arg-NH2] (Ac-RYYR[Trp(5-CN)]R-NH2)	0.7	49.1 ± 0.19	Ki [2]: 0.3 ± 0.133 nM
CC(=O)NCCCCCC(=O)N[C@@H](Cc1ccc(O)cc1)C(=O)N[C@@H](Cc1ccc(O)cc1)C(=O)N[C@@H](CCCNC(=N)N)C(=O)N[C@@H](Cc1c[nH]c2ccccc12)C(=O)N[C@@H](CCCNC(=N)N)C(N)=O [VII-53-B, Ac-ε-aminocaproyl-Tyr-Tyr-Arg-Trp-Arg-NH2] (Ac-[Ahx]YYRWR-NH2)	0.86	39.5 ± 4	
CC(=O)N[C@@H](CCCNC(=N)N)C(=O)N[C@@H](Cc1ccc(O)cc1)C(=O)N[C@@H](Cc1ccc(O)cc1)C(=O)NCCCCCC(=O)N[C@@H](Cc1c[nH]c2ccccc12)C(=O)N[C@@H](CCCNC(=N)N)C(N)=O [VII-55-A, Ac-Arg-Tyr-Tyr-ε-aminocaproyl-Trp-Arg-NH2] (Ac-RYY[Ahx]WR-NH2)	1.12	26.6 ± 1.95	
Ac-Arg-Phe(SO3H)-Tyr-Arg-Trp-Arg-NH2 (Ac-R[Phe(SO3H)]YRWR-NH2) [VII-27-B]	1.12		
Ac-RYYRWR-NH2 [Ac-RYYRWR-NH2] [listing 1 of 2 here]			EC50 [1]: 1.2 nM
Ac-RYYRWR-NH2 [Ac-RYYRWR-NH2] [listing 2 of 2 here]			[35S]GTPγS Binding Percent Stimulation [1]: 100%
